According to ChEMBL document CHEMBL4706491, “Discovery of novel N-sulfonamide-tetrahydroquinolines as potent retinoic acid receptor-related orphan receptor γt inverse agonists for the treatment of autoimmune diseases” (Eur J Med Chem, 2020):

Tests used:
in vitro [1] = settings: CD-1, mouse, liver microsomes
[2] = Half life in CD-1 mouse liver microsomes at 1 uM measured up to 60 mins in presence of NADPH by LC-MS/MS analysis
in vitro [3] = settings: CD-1, mouse, liver
[4] = molecular target: T1, Nuclear receptor ROR-gamma (Homo sapiens, UniProt P51449)
T1 sequence (P51449 whole entry): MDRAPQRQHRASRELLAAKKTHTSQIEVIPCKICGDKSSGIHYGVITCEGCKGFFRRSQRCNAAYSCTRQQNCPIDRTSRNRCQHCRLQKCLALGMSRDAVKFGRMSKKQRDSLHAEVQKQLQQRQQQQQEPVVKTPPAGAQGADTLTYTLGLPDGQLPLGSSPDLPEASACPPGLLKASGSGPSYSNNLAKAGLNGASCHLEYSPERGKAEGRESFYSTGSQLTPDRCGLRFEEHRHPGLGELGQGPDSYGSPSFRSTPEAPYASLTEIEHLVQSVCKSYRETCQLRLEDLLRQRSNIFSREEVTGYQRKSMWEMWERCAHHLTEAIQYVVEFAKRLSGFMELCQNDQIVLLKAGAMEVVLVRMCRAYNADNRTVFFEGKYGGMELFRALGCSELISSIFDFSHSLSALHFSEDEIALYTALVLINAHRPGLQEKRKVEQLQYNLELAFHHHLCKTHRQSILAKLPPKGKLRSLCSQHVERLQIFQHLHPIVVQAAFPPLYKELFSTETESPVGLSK

[5] = molecular target: T1, Nuclear receptor ROR-gamma; test: Agonist activity at APC-labeled RORgammat LBD (unknown origin) incubated for 1 hr in presence of europium-labeled co-activator SRC1 by FRET assay

Compound	XC50 [4]	further results
CC(=O)N1CCN(c2ccc(CN(C3CCC3)S(=O)(=O)Cc3ccccc3)cc2)CC1	–	microsomal CLint at 1 h, 1 µM (in vitro [1]): 612 µL/min/mg; half-life at 1 h, 1 µM [2]: 2.3 min; CLint scaled at 1 h, 1 µM (in vitro [3]): 2420 mL/min/kg
CC(=O)N1CCN(c2ccc3c(c2)CCCN3S(=O)(=O)N(C)CCCc2ccccc2)CC1	7230 nM	–
CC(=O)N1CCN(c2ccc3c(c2)CCCN3S(=O)(=O)N(C)Cc2cccc(F)c2)CC1	324 nM	–
CC(=O)N1CCN(c2ccc3c(c2)CCCN3S(=O)(=O)CCc2ccccc2)CC1	906 nM	–
CC(=O)N1CCN(c2ccc3c(c2)CCCN3S(=O)(=O)N(C)CCc2ccccc2)CC1	910 nM	–
CC(=O)N1CCN(c2ccc3c(c2)CCCN3S(=O)(=O)N(C)Cc2cccc(Cl)c2)CC1	104 nM	–
CC(=O)N1CCN(c2ccc3c(c2)CCCN3S(=O)(=O)N(C)Cc2ccc(C(F)(F)F)cc2)CC1	1550 nM	–
CC(=O)N1CCN(c2ccc3c(c2)CCCN3S(=O)(=O)N(C)Cc2ccccc2C)CC1	143 nM	–
CC(=O)N1CCN(c2ccc3c(c2)CCCN3S(=O)(=O)N(C)Cc2cccc(C)c2)CC1	768 nM	–
CC(=O)N1CCN(c2ccc3c(c2)CCCN3S(=O)(=O)N(C)Cc2ccccc2Cl)CC1	86 nM	–
CC(=O)N1CCN(c2ccc3c(c2)CCCN3S(=O)(=O)c2ccccc2)CC1	–	EC50 [5]: 4840 nM
